Drawing on US9296759B2, “Amino-oxazine and amino-dihydrothiazine compounds as beta-secretase modulators and methods of use” (AMGEN INC., priority 2011, dated 2016), this text covers IC50 and inhibition in vivo for 13 compounds.

Where two headings read alike, the source gives them in different places.

Experiment [1] concerns the target BACE 1 (beta secretase enzyme) (Homo sapiens (Human), UniProt P56817). Kind of experiment: In vitro enzymatic BACE FRET assay. Format: biochemical. The following applies: average IC50. Put shortly: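 The enzyme was tested in 0.05 M acetate, pH 4.2, with 10% DMSO final and 100 uM genapol. The reaction was started with 50 nM quenched FRET peptide substrate, incubated one hour and stopped with Tris to neutral pH. Cleavage was read as fluorescence ([…]).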

Experiment [2] concerns Aβ40 in conditioned medium of cells stably expressing Amyloid Precursor Protein (APP). Put plainly: In vitro BACE cell-based assay (HEK cell assay, Aβ40 sandwich ELISA). The following applies: Homo sapiens, HEK293; average IC50, Aβ40, 24 h incubation. Put shortly:
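Secreted Aβ40 was quantified by sandwich ELISA (pAb40 capture, biotinylated 6E10 detection, Europium time-resolved fluorescence). IC50 derived from percent inhibition versus concentration.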

The next experiment addresses Cathepsin D (Homo sapiens (Human), UniProt P07339). Put plainly: In vitro enzymatic Cat D (Cathepsin D) FRET assay. To be noted: average IC50. Format: biochemical. A digest of the protocol: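 CHO-expressed recombinant enzyme in 0.05 M citrate pH 3.5, 5 mM CHAPS, 10% DMSO final; reaction started with 20 nM quenched-peptide FRET substrate (cleavage site spanned by fluorophore/quencher), 1 h incubation.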

Another experiment deals with Abeta 40. Kind of experiment: In vivo inhibition of beta-secretase: Abeta 40 reduction in CSF and brain of the rat. To be noted: 10 mpk, after 4 hrs. An excerpt:
In Vivo Inhibition of Beta-Secretase
Several animal models, including mouse, rat, dog, and monkey, may be used to screen for inhibition of beta-secretase activity in vivo following administration of a test compound sample. Animals used in this invention can be wild type, transgenic, or gene knockout animals. For example, the Tg2576 mouse model, prepared and conducted as described in Hsiao et al., 1996, Science 274, 99-102, and other non-transgenic or gene knockout animals are useful to analyze in vivo inhibition of Amyloid beta peptide (Abeta) production in the presence of inhibitory test compounds. Generally, 2 to 18 month old Tg2576 mice, gene knockout mice or non-transgenic animals are administered test compounds formulated in vehicles, such as cyclodextran, phosphate buffers, hydroxypropyl methylcellulose or other suitable vehicles. One to twenty-four hours following the administration of compound, animals are sacrificed, and brains as well as cerebrospinal fluid (CSF) and plasma are removed for analysis of A-beta levels and drug or test compound concentrations (Dovey et al., 2001, Journal of Neurochemistry, 76, 173-181) Beginning at time 0, animals are administered by oral gavage, or other means of delivery such as intravenous injection, an inhibitory test compound of up to 100 mg/kg in a standard, conventional formulation, such as 2% hydroxypropyl methylcellulose, 1% Tween80. A separate group of animals receive 2% hydroxypropyl methylcellulose, 1% Tween80 alone, containing no test compound, and serve as a vehicle-control group. At the end of the test period, animals are sacrificed and brain tissues, plasma or cerebrospinal fluid are collected. Brains are either homogenized in 10 volumes (w/v) of 0.2% diethylamine (DEA) in 50 mM NaCl (Best et al., 2005, Journal of Pharmacology and Experimental Therapeutics, 313, 902-908), or in 10 volumes of 0.5% TritonX-100 in Tris-buffered saline (pH at about 7.6). Homogenates are centrifuged at 355,000 g, 4° C. for 30 minutes. CSF or brain supernatants are then analyzed for the presence of A-beta peptide by specific sandwich ELISA assays based on ECL (Electrochemiluminescence) technology. For example, rat Abeta40 is measured using biotinylated-4G8 (Signet) as a capture antibody and Fab40 (an in-house antibody specific to the C-terminal of Abeta40) as a detection antibody. For example, 4 hours after administration of 30 mg/kg oral dose of the test compound in 2% hydroxypropyl methylcellulose, 1% Tween80 (pH2.2) to 200 g male Sprague Dawley rats, amyloid beta peptide levels are measured for reduction by X % and Y % in cerebrospinal fluid and brain, respectively, when compared to the levels measured in the vehicle-treated rats.
• Oral: 2% HPMC, 1% Tween80, pH 2.2 • IV: 5% EtOH, 45% Propylene glycol in 5% Dextrose
The compounds of the invention may be shown to reduce the formation and/or deposition of amyloid beta peptide in the cerebrospinal fluid (CSF) as well as in the brain of a mouse or rat at either 3 mpk, 10 mpk or 30 mpk (mpk=mg compound per kg weight of the animal) dosing concentrations after 4 hrs.

Setting [3] is: Abeta 40, rat CSF, read-out: % reduction of rat CSF levels at 10 pmk.
The mark [4] stands for this setting: Abeta 40, rat brain, read-out: % reduction of rat brain levels at 10 mpk.

Sequence of Cathepsin D (P07339 65-412, species assumed): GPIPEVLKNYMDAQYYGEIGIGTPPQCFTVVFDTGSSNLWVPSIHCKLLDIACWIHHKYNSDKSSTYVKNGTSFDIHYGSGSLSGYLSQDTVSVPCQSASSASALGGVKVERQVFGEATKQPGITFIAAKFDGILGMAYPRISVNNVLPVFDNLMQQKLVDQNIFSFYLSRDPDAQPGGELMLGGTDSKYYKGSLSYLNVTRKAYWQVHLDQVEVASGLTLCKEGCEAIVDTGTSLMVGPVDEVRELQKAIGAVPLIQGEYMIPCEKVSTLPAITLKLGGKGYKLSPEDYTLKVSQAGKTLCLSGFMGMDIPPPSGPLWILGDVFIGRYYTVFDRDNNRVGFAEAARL
Sequence of BACE 1 (beta secretase enzyme) (P56817 46-501): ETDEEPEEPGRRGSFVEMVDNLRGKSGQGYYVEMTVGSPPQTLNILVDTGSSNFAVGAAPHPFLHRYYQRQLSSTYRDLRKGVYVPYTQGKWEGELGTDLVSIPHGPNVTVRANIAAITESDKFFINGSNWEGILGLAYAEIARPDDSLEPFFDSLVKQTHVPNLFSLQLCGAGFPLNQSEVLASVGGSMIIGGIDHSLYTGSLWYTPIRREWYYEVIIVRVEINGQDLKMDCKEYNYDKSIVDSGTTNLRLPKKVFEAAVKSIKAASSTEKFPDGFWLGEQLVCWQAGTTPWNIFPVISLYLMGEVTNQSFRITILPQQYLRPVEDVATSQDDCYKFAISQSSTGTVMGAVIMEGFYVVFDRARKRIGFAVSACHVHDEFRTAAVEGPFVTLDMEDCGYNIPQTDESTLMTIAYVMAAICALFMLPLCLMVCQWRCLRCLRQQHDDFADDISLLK

What is called IC50 is the midpoint of a concentration-inhibition curve. Take `NC1=N[C@@]2(CCO1)c1cc(NC(=O)c3ccc(F)cn3)ccc1Oc1c2cc(C2=CCOCC2)nc1F` [Example 72, N-((5S)-2′-amino-3-(3,6-dihydro-2H-pyran-4-yl)-1-fluoro-5′,6′-dihydrospiro[chromeno[2,3-c]pyridine-5,4′-[1,3]oxazin]-7-yl)-5-fluoro-2-pyridinecarboxamide]: the IC50 was found to be 1.1 nM in experiment [1], 0.2 nM in experiment [2] and 358000 nM on Cathepsin D. In addition, the values for the inhibition in vivo at 10 mg/kg in the experiment on Abeta 40 (setting [3]) and in the experiment on Abeta 40 (setting [4]) were 78% and 72%, respectively.
For the compound `NC1=N[C@@]2(CCO1)c1cc(NC(=O)c3ccc(Cl)cn3)ccc1Oc1ncc(C3CC3)cc12` [Example 73, N-((5S)-2′-amino-3-cyclopropyl-5′,6′-dihydrospiro[chromeno[2,3-b]pyridine-5,4′-[1,3]oxazin]-7-yl)-5-chloro-2-pyridinecarboxamide], the figures for the IC50 (in experiment [1]; in experiment [2]; on Cathepsin D) were 12.7 nM, 3.2 nM and 433000 nM, respectively. Further, the inhibition in vivo at 10 mg/kg in the experiment on Abeta 40 (setting [3]) came to 38%; in the experiment with Abeta 40 (setting [4]) it was 7%.
Turning to `COc1ccc(C(=O)Nc2ccc3c(c2)[C@@]2(CCOC(N)=N2)c2cc(C4=CCOCC4)nc(F)c2O3)nc1` [Example 78, N-((5S)-2′-amino-3-(3,6-dihydro-2H-pyran-4-yl)-1-fluoro-5′,6′-dihydrospiro[chromeno[2,3-c]pyridine-5,4′-[1,3]oxazin]-7-yl)-5-methoxy-2-pyridinecarboxamide], the concentration for half-maximal inhibition (IC50) in experiment [1] was found to be 1.5 nM; in experiment [2], 0.2 nM; on Cathepsin D it was 184000 nM. For the same compound, the results for the inhibition in vivo at 10 mg/kg with Abeta 40 (setting [3]) and in the experiment on Abeta 40 (setting [4]) were 77% and 70%, respectively.
Taken in the same sequence, the figures for `COc1cnc(C(=O)Nc2ccc3c(c2)[C@@]2(CCOC(N)=N2)c2cc(C4CC4)ncc2O3)cn1` [Example 80, N-((5S)-2′-amino-3-cyclopropyl-5′,6′-dihydrospiro[chromeno[2,3-c]pyridine-5,4′-[1,3]oxazin]-7-yl)-5-methoxy-2-pyrazinecarboxamide] were 6.8 nM, 1.5 nM, 963000 nM, 82% and 80%.
As to `NC1=N[C@@]2(CCO1)c1cc(NC(=O)c3ccc(Cl)cn3)ccc1Oc1cnc(C3CC3)cc12` [Example 81, N-((5S)-2′-amino-3-cyclopropyl-5′,6′-dihydrospiro[chromeno[2,3-c]pyridine-5,4′-[1,3]oxazin]-7-yl)-5-chloro-2-pyridinecarboxamide], the IC50 in experiment [1] was found to be 10.7 nM; in experiment [2], 1.1 nM; at Cathepsin D, 400000 nM. Besides, the inhibition in vivo at 10 mg/kg was 76% in the experiment on Abeta 40 (setting [3]) and 64% with Abeta 40 (setting [4]).
With `COc1ccc(C(=O)Nc2ccc3c(c2)[C@@]2(CCOC(N)=N2)c2cc(C4=CCCOC4)nc(F)c2O3)nc1` [Example 84, N-((5S)-2′-amino-3-(5,6-dihydro-2H-pyran-3-yl)-1-fluoro-5′,6′-dihydrospiro[chromeno[2,3-c]pyridine-5,4′-[1,3]oxazin]-7-yl)-5-methoxy-2-pyridinecarboxamide], the IC50 in experiment [1] turned out to be 0.9 nM; in experiment [2] it was 0.1 nM; at Cathepsin D it was 313000 nM. In addition, the inhibition in vivo at 10 mg/kg turned out to be 83% in the experiment on Abeta 40 (setting [3]) and 71% in the experiment on Abeta 40 (setting [4]).
The like results for `COc1ccc(C(=O)Nc2ccc3c(c2)[C@@]2(CCOC(N)=N2)c2cc(-c4cncc(F)c4)nc(F)c2O3)nc1` [Example 87, N-((5S)-2′-amino-1-fluoro-3-(5-fluoro-3-pyridinyl)-5′,6′-dihydrospiro[chromeno[2,3-c]pyridine-5,4′-[1,3]oxazin]-7-yl)-5-methoxy-2-pyridinecarboxamide] were, in that order, 1.4 nM, 0.5 nM, 256000 nM, 75% and 53%.
On to `Cc1nc(C(=O)Nc2ccc3c(c2)[C@@]2(CCOC(N)=N2)c2cc(-c4cncc(F)c4)nc(F)c2O3)cs1` [Example 88, N-((5S)-2′-amino-1-fluoro-3-(5-fluoro-3-pyridinyl)-5′,6′-dihydrospiro[chromeno[2,3-c]pyridine-5,4′-[1,3]oxazin]-7-yl)-2-methyl-1,3-thiazole-4-carboxamide], for which the IC50 in experiment [1] amounted to 0.6 nM; in experiment [2], 0.2 nM; on Cathepsin D it was 362000 nM. In addition, the inhibition in vivo at 10 mg/kg in the experiment on Abeta 40 (setting [3]) was determined as 49%; with Abeta 40 (setting [4]), 27%.
`NC1=N[C@@]2(CCO1)c1cc(NC(=O)c3ccc(F)cn3)ccc1Oc1c2cc(-c2cncc(F)c2)nc1F` [Example 89, N-((5S)-2′-amino-1-fluoro-3-(5-fluoro-3-pyridinyl)-5′,6′-dihydrospiro[chromeno[2,3-c]pyridine-5,4′-[1,3]oxazin]-7-yl)-5-fluoro-2-pyridinecarboxamide]: the figures for the IC50 (in experiment [1]; in experiment [2]; on Cathepsin D) were 1.6 nM, 0.6 nM and 400000 nM, respectively. Also, the inhibition in vivo at 10 mg/kg was 69% in the experiment with Abeta 40 (setting [3]) and 46% with Abeta 40 (setting [4]).
For `COc1cnc(C(=O)Nc2ccc3c(c2)[C@@]2(CCOC(N)=N2)c2cc(-c4ccnc(F)c4)nc(F)c2O3)cn1` [Example 92, N-((5S)-2′-amino-1-fluoro-3-(2-fluoro-4-pyridinyl)-5′,6′-dihydrospiro[chromeno[2,3-c]pyridine-5,4′-[1,3]oxazin]-7-yl)-5-methoxy-2-pyrazinecarboxamide], the IC50 in experiment [1] is 1.8 nM; in experiment [2], 0.9 nM; at Cathepsin D, 400000 nM. In addition, the inhibition in vivo at 10 mg/kg in the experiment on Abeta 40 (setting [3]) turned out to be 79%; in the experiment with Abeta 40 (setting [4]) it was 70%.
The like results for `COc1ccc(C(=O)Nc2ccc3c(c2)[C@@]2(CCSC(N)=N2)c2cc(C4=CCOCC4)nc(F)c2O3)nc1` [Example 101, N-((5S)-2′-amino-3-(3,6-dihydro-2H-pyran-4-yl)-1-fluoro-5′,6′-dihydrospiro[chromeno[2,3-c]pyridine-5,4′-[1,3]thiazin]-7-yl)-5-methoxy-2-pyridinecarboxamide] were, in that order, 1.5 nM, 0.7 nM, 198000 nM, 76% and 59%.
Take `COc1cnc(C(=O)Nc2ccc3c(c2)[C@@]2(CCSC(N)=N2)c2cc(C4=CCCOC4)ncc2O3)cn1` [Example 104, N-((5S)-2′-amino-3-(5,6-dihydro-2H-pyran-3-yl)-5′,6′-dihydrospiro[chromeno[2,3-c]pyridine-5,4′-[1,3]thiazin]-7-yl)-5-methoxy-2-pyrazinecarboxamide]: the results for the IC50 (in experiment [1]; in experiment [2]; on Cathepsin D) were 3.1 nM, 1 nM and 295000 nM, respectively. Besides, the inhibition in vivo at 10 mg/kg in the experiment with Abeta 40 (setting [3]) was 64%; in the experiment on Abeta 40 (setting [4]), 43%.
Regarding `COc1ccc(C(=O)Nc2ccc3c(c2)[C@@]2(CCSC(N)=N2)c2cc(C4=CCCOC4)nc(F)c2O3)nc1` [Example 111, N-((5S)-2′-amino-3-(5,6-dihydro-2H-pyran-3-yl)-1-fluoro-5′,6′-dihydrospiro[chromeno[2,3-c]pyridine-5,4′-[1,3]thiazin]-7-yl)-5-methoxy-2-pyridinecarboxamide], the IC50 was 2.5 nM in experiment [1], 0.8 nM in experiment [2] and 569000 nM on Cathepsin D. Moreover, the inhibition in vivo at 10 mg/kg with Abeta 40 (setting [3]) was found to be 76%; in the experiment with Abeta 40 (setting [4]), 58%.
